Source: patent US9499493B2, “2,4-pyrimidinediamine compounds and their uses” (Rigel Pharmaceuticals, Inc., priority 2002, dated 2016)

How the values were obtained:
[1] = tested on: cultured human mast cells (CHMC); assay: CHMC low cell density ionomycin activation: tryptase assay; assay type: cell-based
[2] = tested on: cultured human mast cells (CHMC); assay: CHMC low cell density IgE activation: tryptase assay; assay type: cell-based; details: anti-IgE
Summary of the method: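 Degranulation was triggered with anti-IgE for 30 minutes at 37° C in cultured human mast cells seeded at low density (1000-1500 cells/well, chosen by donor) after a 1 hr equilibration in MT buffer. Released tryptase in cleared supernatant was quantified with a tryptase substrate at room temperature for 30 minutes.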

SMILES | IC50 [1] | IC50 [2] | IC50 ([1]; Homo sapiens, Mast cell) | IC50 ([2]; Homo sapiens, Mast cell)
NC(=O)COc1ccc(Nc2nc(Nc3ccc4c(c3)OCCO4)ncc2F)cc1 [R945171, N4-(4-Aminocarbonylmethyleneoxyphenyl)-N2-(3,4-ethylenedioxyphenyl)-5-fluoro-2,4-pyrimidinediamine] | > 10000 nM | 1330 nM | – | –
N#CCOc1ccc(Nc2nc(Nc3ccc4c(c3)OCCO4)ncc2F)cc1 [R945172, N4-(4-Cyanomethyleneoxyphenyl)-N2-(3,4-ethylenedioxyphenyl)-5-fluoro-2,4-pyrimidinediamine] | > 10000 nM | 1180 nM | – | –
CNC(=O)COc1ccc(Nc2nc(Nc3ccc4c(c3)OCCO4)ncc2F)cc1 [R945173, N2-(3,4-Ethylenedioxyphenyl)-5-fluoro-N4-(4-methylaminocarbonylmethyleneoxyphenyl)-2,4-pyrimidinediamine] | > 10000 nM | 1420 nM | – | –
CON=C(N)COc1ccc(Nc2nc(Nc3ccc4c(c3)OCCO4)ncc2F)cc1 [R945175, N2-(3,4-Ethylenedioxyphenyl)-5-fluoro-N4-[4-methoxyimino(amino)ethyleneoxyphenyl]-2,4-pyrimidinediamine] | > 10000 nM | 1650 nM | – | –
O=C1CN=C2COc3ccc(Nc4nc(Nc5cccc(O)c5)ncc4F)cc3N12 [R945236, N4-[2,4-Dihydro-1-oxo-4H-imidazo[2,1-c][1,4]benzoxazin-8-yl]-5-fluoro-N2-(3-hydroxyphenyl)-2,4-pyrimidinediamine] | > 10000 nM | 562 nM | – | –
CNC(=O)COc1cccc(Nc2ncc(F)c(Nc3cnc4c(c3)OCC(=O)N4)n2)c1 [R945242, 5-Fluoro-N2-(3-methylaminocarbonylmethyleneoxyphenyl)-N4-[2H-pyrido[3,2-b]-1,4-oxazin-3(4H)-one-7-yl]-2,4-pyrimidinediamine] | > 10000 nM | 247 nM | – | –
CS(=O)(=O)Nc1ccc(Nc2ncc(F)c(Nc3ccc(NS(C)(=O)=O)cc3)n2)cc1 [R950083, N2,N4-Bis[(4-methylsulfonylamino)phenyl]-5-fluoro-2,4-pyrimidinediamine] | > 10000 nM | > 10000 nM | – | –
CS(=O)(=O)Nc1cccc(Nc2ncc(F)c(Nc3cccc(NS(C)(=O)=O)c3)n2)c1 [R950100] | > 10000 nM | 710 nM | – | –
Nc1ccc(Nc2ncc(F)c(Nc3ccc(N)cc3)n2)cc1 [R950122, N2,N4-Bis(4-aminophenyl)-5-fluoro-2,4-pyrimidinediamine] | > 10000 nM | 3020 nM | – | –
Nc1cccc(Nc2nc(Nc3cccc(Nc4ncc(F)c(Nc5cccc(N)c5)n4)c3)ncc2F)c1 [R950137, N4-(3-Aminophenyl)-N2-[[N3-[N4-(3-aminophenyl)]-5-fluoro-2,4-pyrimidinediamine]aminophenyl]-5-fluoro-2,4-pyrimidinediamine] | > 10000 nM | 2230 nM | – | –
O=[N+]([O-])c1ccc(NCCO)c(Nc2ncc(F)c(Nc3cc([N+](=O)[O-])ccc3NCCO)n2)c1 [R950150, N2,N4-Bis(2-hydroxyethyleneamino-5-nitrophenyl)-5-fluoro-2,4-pyrimidinediamine] | > 10000 nM | > 10000 nM | – | –
O=C(NCCO)c1cc2cc(Nc3ncc(F)c(Nc4ccc5oc(C(=O)NCCO)cc5c4)n3)ccc2o1 [R950167, N2,N4-Bis[2-(2-hydroxyethyleneamoinocarbonyl)-benzofurane-5-yl]-5-fluoro-2,4-pyrimidinediamine] | > 10000 nM | > 10000 nM | – | –
NCCNC(=O)c1cc2cc(Nc3ncc(F)c(Nc4ccc5oc(C(=O)NCCN)cc5c4)n3)ccc2o1 [R950168, N2,N4-Bis[2-(2-aminoethyleneamoinocarbonyl)-benzofurane-5-yl]-5-fluoro-2,4-pyrimidinediamine] | 8650 nM | 6500 nM | – | –
O=C(NCCNCc1ccccc1)c1cc2cc(Nc3ncc(F)c(Nc4ccc5oc(C(=O)NCCNCc6ccccc6)cc5c4)n3)ccc2o1 [R950169, N2,N4-Bis[2-(2-(N-benzylamino)ethyleneamoinocarbonyl)-benzofurane-5-yl]-5-fluoro-2,4-pyrimidinediamine] | 9520 nM | 1270 nM | – | –
CNCCNC(=O)c1cc2cc(Nc3ncc(F)c(Nc4ccc5oc(C(=O)NCCNC)cc5c4)n3)ccc2o1 [R950170, N2,N4-Bis[2-[2-(methylamino)ethyleneaminocarbonyl]-benzofurane-5-yl]-5-fluoro-2,4-pyrimidinediamine] | > 10000 nM | > 10000 nM | – | –
CC(CO)Nc1cccc(Nc2ncc(F)c(Nc3cccc(NC(C)CO)c3)n2)c1 (centres unmarked) [R950171, N2,N4-Bis[3-N-(2-hydroxy-1-methylethyl)aminophenyl]-5-fluoro-2,4-pyrimidinediamine] | > 10000 nM | 585 nM | – | –
O=C(c1cc2cc(Nc3ncc(F)c(Nc4ccc5oc(C(=O)N6CCOCC6)cc5c4)n3)ccc2o1)N1CCOCC1 [R950172, N2,N4-Bis[2-(N-morpholinocarbonyl)benzofurane-5-yl]-5-fluoro-2,4-pyrimidinediamine] | > 10000 nM | 983 nM | – | –

SMILES | IC50 [1] | IC50 [2] | IC50 ([1]; Homo sapiens, Mast cell) | IC50 ([2]; Homo sapiens, Mast cell)
O=C(NCCN1CCOCC1)c1cc2cc(Nc3ncc(F)c(Nc4ccc5oc(C(=O)NCCN6CCOCC6)cc5c4)n3)ccc2o1 [R950173, N2,N4-Bis[2-(2-N-morpholinoethyleneamoinocarbonyl)-benzofurane-5-yl]-5-fluoro-2,4-pyrimidinediamine] | > 10000 nM | 2370 nM | – | –
Fc1cnc(Nc2cccc(NCCOCc3ccccc3)c2)nc1Nc1cccc(NCCOCc2ccccc2)c1 [R950174, N2,N4-Bis[3-(N-benzyloxyethyleneamino)phenyl]-5-fluoro-2,4-pyrimidinediamine] | > 10000 nM | 4620 nM | – | –
Nc1cccc(Nc2ncc(F)c(Nc3cccc(NCCOCc4ccccc4)c3)n2)c1 [R950175, N2-(3-Aminophenyl)-N4-[3-(N-benzyloxyethyleneamino)phenyl]-5-fluoro-2,4-pyrimidinediamine] | > 10000 nM | 1690 nM | – | –
Nc1cccc(Nc2nc(Nc3cccc(NCCOCc4ccccc4)c3)ncc2F)c1 [R950176, N4-(3-Aminophenyl)-N2-[3-(N-benzyloxyethyleneamino)phenyl]-5-fluoro-2,4-pyrimidinediamine] | > 10000 nM | 1340 nM | – | –
CCOC(=O)COc1cccc(Nc2ncc(F)c(Nc3cc(Cl)c(O)c(Cl)c3)n2)c1 [R950185, N4-(3,5-Dichloro-4-hydroxyphenyl)-N2-(3-ethoxycarbonylmethyleneoxyphenyl)-5-fluoro-2,4-pyrimidinediamine] | 8810 nM | 1030 nM | – | –
O=C(COc1cccc(Nc2ncc(F)c(Nc3cc(Cl)c(O)c(Cl)c3)n2)c1)N1CCOCC1 [R950187, N4-(3,5-Dichloro-4-hydroxyphenyl)-5-fluoro-N2-[3-(N-morpholino)carbonylmethyleneoxyphenyl]-2,4-pyrimidinediamine] | > 10000 nM | 724 nM | – | –
O=C(COc1cccc(Nc2ncc(F)c(Nc3cc(Cl)c(O)c(Cl)c3)n2)c1)N1CCNCC1 [R950188, N4-(3,5-Dichloro-4-hydroxyphenyl)-5-fluoro-N2-[3-(N-piperazino)carbonylmethyleneoxyphenyl]-2,4-pyrimidinediamine] | > 10000 nM | 2330 nM | – | –
CNc1ncc(F)c(Nc2ccc3c(c2)OCCO3)n1 [R950189] | – | – | > 10000 nM | 10000 nM
NC(=O)CNc1cccc(Nc2ncc(F)c(Nc3ccc4c(c3)OCCO4)n2)c1 [R950192, N2-[3-(N-Amino)carbonylmethyleneaminophenyl]-N4-(3,4-ethylenedioxyphenyl)-5-fluoro-2,4-pyrimidinediamine] | > 10000 nM | 244 nM | – | –
O=C(CNc1cccc(Nc2ncc(F)c(Nc3ccc4c(c3)OCCO4)n2)c1)N1CCOCC1 [R950193, N4-(3,4-Ethylenedioxyphenyl)-5-fluoro-N2-[3-(N-morpholino)carbonylmethyleneaminophenyl]-2,4-pyrimidinediamine] | > 10000 nM | 610 nM | – | –
CN1CCN(C(=O)CNc2cccc(Nc3ncc(F)c(Nc4ccc5c(c4)OCCO5)n3)c2)CC1 [R950194, N4-(3,4-Ethylenedioxyphenyl)-5-fluoro-N2-[3-(N—(N-methyl)-piperazino)carbonylmethyleneaminophenyl]-2,4-pyrimidinediamine] | > 10000 nM | 2040 nM | – | –
CNCCNC(=O)CNc1cccc(Nc2ncc(F)c(Nc3ccc4c(c3)OCCO4)n2)c1 [R950196, N4-(3,4-Ethylenedioxyphenyl)-5-fluoro-N2-[3-(N-methylamino)ethyleneaminocarbonylmethyleneaminophenyl]-2,4-pyrimidinediamine] | > 10000 nM | 2200 nM | – | –
O=C(CNc1cccc(Nc2ncc(F)c(Nc3ccc4c(c3)OCCO4)n2)c1)N1CCNCC1 [R950197, N4-(3,4-Ethylenedioxyphenyl)-5-fluoro-N2-[3-(N-piperazino)carbonylmethyleneaminophenyl]-5-fluoro-2,4-pyrimidinediamine] | > 10000 nM | 531 nM | – | –
O=C(CNc1cccc(Nc2ncc(F)c(Nc3ccc4c(c3)OCCO4)n2)c1)NCCNCc1ccccc1 [R950198, N2-[3-(N-Benzylamino)ethyleneaminocarbonylmethyleneaminophenyl]-N4-(3,4-ethylenedioxyphenyl)-5-fluoro-2,4-pyrimidinediamine] | > 10000 nM | 406 nM | – | –
O=C(CNc1cccc(Nc2ncc(F)c(Nc3ccc4c(c3)OCCO4)n2)c1)N(CCO)CCO [R950199, N2-[3-(N,N′-Bis(2-N-hydroxyethyl)amino)carbonylmethyleneaminophenyl]-N4-(3,4-ethylenedioxyphenyl)-5-fluoro-2,4-pyrimidinediamine] | > 10000 nM | 408 nM | – | –
O=C(CNc1cccc(Nc2ncc(F)c(Nc3ccc4c(c3)OCCO4)n2)c1)NCCN1CCOCC1 [R950200, N4-(3,4-Ethylenedioxyphenyl)-5-fluoro-N2-[3-(N-2-morpholinoethyleneamino)carbonylmethyleneaminophenyl]-2,4-pyrimidinediamine] | > 10000 nM | 245 nM | – | –
CSc1nc2ccc(Nc3ncc(F)c(Nc4ccc5c(c4)OCCO5)n3)cc2s1 [R950201, N4-(3,4-Ethylenedioxyphenyl)-5-fluoro-N2-[2-(methylthio)-1,3-benzothiaz-6-yl]-2,4-pyrimidinediamine] | > 10000 nM | 261 nM | – | –
